Laboratory results from patent US10517889B2, “Modulators of SMAD7 expression” (Ionis Pharmaceuticals, Inc., priority 2017, dated 2019).
Strand notation (5' to 3'): a small letter for the sugar, then the base; units joined by * are phosphorothioate-linked, units joined directly phosphodiester-linked; [ ] holds rarer units or linkages, { } end groups; capitals alone tell only the bases. k = constrained ethyl (cEt); [5mC] = 5-methylcytosine; d = 2'-deoxy (DNA)

Test system: human SMAD7 mRNA
Experiment: Antisense inhibition of human SMAD7 mRNA expression in Hep3B cells by 3-10-3 cEt gapmers, 10,000 nM, electroporation (Example 2)
Type: cell-based
Details: Hep3B cells, 10,000 nM antisense oligonucleotide, electroporation, approximately 24 hours, RT-PCR primer probe set RTS5062, relative to untreated control cells
Procedure, shortened: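 Hep3B cells (20,000/well) were electroporated with 10,000 nM 3-10-3 cEt gapmer (16-mer, phosphorothioate, 5-methylcytosines) and harvested after about 24 h. SMAD7 mRNA quantified by RT-qPCR with primer probe set RTS5062, normalized to total RNA by RiboGreen; percent inhibition relative to untreated cells.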

| Substance | % Inhibition [%] |
| --- | --- |
| 790847 (kT*k[5mC]*kT*dT*dA*d[5mC]*dA*dA*dA*dG*dA*dG*dT*kT*kA*kT; antisense) [compound 790847] | 24 |
| 799975 (kT*k[5mC]*kT*dT*d[5mC]*dA*dG*dG*dG*dA*d[5mC]*dA*dA*kG*k[5mC]*k[5mC]; antisense) [compound 799975] | 38 |
| 799990 (kT*kT*kG*d[5mC]*dA*d[5mC]*d[5mC]*dT*dG*dG*d[5mC]*dA*dA*k[5mC]*k[5mC]*kT; antisense) [compound 799990] | 0 |
| 799855 (kA*kG*k[5mC]*d[5mC]*dA*dA*dG*dT*dG*dT*d[5mC]*d[5mC]*dA*kT*k[5mC]*kA; antisense) [compound 799855] | 52 |
| 799937 (antisense kT*k[5mC]*kT*dT*dT*dA*dA*dT*dT*dT*d[5mC]*dA*dG*kA*kG*kT) [compound 799937] | 24 |
| 799895 (antisense k[5mC]*kT*kG*dA*dG*dA*dG*dT*dG*dT*dA*dG*dG*kA*kG*kA) [compound 799895] | 50 |

Same assay, conditions: Hep3B cells, electroporation with 10,000 nM antisense oligonucleotide, approximately 24 hours, SMAD7 mRNA by RT-PCR (RTS5062), relative to untreated control cells

| Substance | % Inhibition [%] |
| --- | --- |
| 798772 (k[5mC]*kT*kT*d[5mC]*d[5mC]*dG*dA*dG*dG*dA*dA*dT*dG*k[5mC]*k[5mC]*kT; antisense) [compound 798772] | 48 |
| 799328 (kA*kT*kG*d[5mC]*dA*d[5mC]*dA*d[5mC]*dT*d[5mC]*dT*d[5mC]*d[5mC]*k[5mC]*kA*kG; antisense) [compound 799328] | 0 |
| 800084 (antisense kG*k[5mC]*k[5mC]*dA*dA*dA*dT*d[5mC]*dA*d[5mC]*dA*dA*d[5mC]*kA*kT*kG) [compound 800084] | 57 |
| 799468 (antisense kT*k[5mC]*kA*d[5mC]*d[5mC]*dT*dT*dA*dG*dG*d[5mC]*d[5mC]*dT*kG*kT*kG) [compound 799468] | 22 |
| 799374 (antisense kT*kT*kG*d[5mC]*dA*d[5mC]*d[5mC]*dT*dT*dT*dT*dT*dA*kA*kA*k[5mC]) [compound 799374] | 30 |
| 799488 (antisense kT*kG*kG*dA*dA*dG*dA*d[5mC]*dA*d[5mC]*d[5mC]*d[5mC]*d[5mC]*k[5mC]*kA*k[5mC]) [compound 799488] | 42 |
| 798921 (kG*kG*k[5mC]*d[5mC]*dT*dG*d[5mC]*dT*d[5mC]*dA*dG*d[5mC]*dT*k[5mC]*kA*k[5mC]; antisense) [compound 798921] | 42 |
| 798737 (antisense k[5mC]*kA*kG*dA*dT*d[5mC]*d[5mC]*dG*d[5mC]*d[5mC]*dT*d[5mC]*dG*kG*k[5mC]*kG) [compound 798737] | 2 |
| 798831 (kA*kT*kA*dG*dA*dA*dG*dA*dT*dA*dT*d[5mC]*d[5mC]*kA*kG*kA; antisense) [compound 798831] | 0 |
| 800080 (antisense kG*kG*kG*d[5mC]*dT*dA*d[5mC]*d[5mC]*dT*dT*dA*dA*d[5mC]*kA*kA*kA) [compound 800080] | 14 |
| 799415 (antisense kG*k[5mC]*k[5mC]*dA*d[5mC]*dA*dG*d[5mC]*dA*dG*d[5mC]*dT*dG*kG*k[5mC]*kA) [compound 799415] | 0 |
| 830153 (antisense kG*k[5mC]*k[5mC]*dT*d[5mC]*dA*dG*d[5mC]*dA*dG*dT*dT*dA*kA*kT*kA) [compound 830153] | 21 |
| 790479 (kG*kG*k[5mC]*dA*dG*d[5mC]*dA*dG*dG*dA*dG*dG*d[5mC]*kA*k[5mC]*kG; antisense) [compound 790479] | 43 |
| 798666 (k[5mC]*kA*kT*dG*d[5mC]*dG*d[5mC]*d[5mC]*dA*dG*dT*d[5mC]*dT*k[5mC]*k[5mC]*k[5mC]; antisense) [compound 798666] | 33 |
| 800100 (antisense kT*kG*k[5mC]*dA*dG*dA*dG*d[5mC]*dA*d[5mC]*dA*dG*dA*kT*kG*k[5mC]) [compound 800100] | 16 |
| 799448 (antisense kG*kT*kA*dA*dA*dA*dT*dG*dA*dA*dT*dG*dA*k[5mC]*kT*kG) [compound 799448] | 41 |
| 799512 (antisense kG*kT*kT*dA*dA*dT*dG*dA*dG*dG*dA*dT*dA*kA*kT*kG) [compound 799512] | 16 |
| 800061 (antisense k[5mC]*k[5mC]*k[5mC]*dA*dA*dA*dT*dG*d[5mC]*d[5mC]*dT*dG*d[5mC]*k[5mC]*k[5mC]*k[5mC]) [compound 800061] | 44 |

Same assay, conditions: Hep3B cells, electroporation with 10,000 nM antisense oligonucleotide, approximately 24 hours, primer probe set RTS5062, relative to untreated control cells

| Substance | % inhibition of SMAD7 mRNA expression [%] | % Inhibition [%] |
| --- | --- | --- |
| 798932 (antisense k[5mC]*kT*k[5mC]*dA*dG*dG*dA*dG*dG*dA*dA*dA*dA*kT*kA*kT) [compound 798932] | 0 | – |
| 799207 (k[5mC]*kT*kT*dT*dA*dT*dA*dT*dT*dT*dA*d[5mC]*dA*kA*kG*kT; antisense) [compound 799207] | – | 0 |
| 799103 (antisense k[5mC]*k[5mC]*kG*dG*dG*dA*dA*dA*dA*dA*d[5mC]*d[5mC]*dT*kG*kA*kT) [compound 799103] | 12 | – |
| 799094 (antisense kT*kG*kA*dT*dG*dT*d[5mC]*dA*d[5mC]*d[5mC]*dA*dG*dG*kG*k[5mC]*kA) [compound 799094] | – | 57 |
| 799232 (kT*k[5mC]*kA*dG*d[5mC]*dT*dA*dG*dG*dT*dG*dA*dT*kA*kA*k[5mC]; antisense) [compound 799232] | 13 | – |
| 799203 (antisense kG*kG*kT*dT*dT*dT*dT*dT*dT*dT*d[5mC]*dA*dG*kG*kA*kG) [compound 799203] | 56 | – |
| 798944 (antisense kA*kA*kA*d[5mC]*dG*dA*dG*dG*dA*d[5mC]*dG*dA*dG*kA*kA*kG) [compound 798944] | 3 | – |
| 799246 (antisense kA*k[5mC]*kA*dG*dT*dA*dT*d[5mC]*dT*dG*dG*dG*d[5mC]*k[5mC]*kA*k[5mC]) [compound 799246] | 74 | – |
| 798938 (antisense kA*k[5mC]*k[5mC]*dA*dA*dA*dG*dA*dG*dT*dT*dT*dG*k[5mC]*kA*kT) [compound 798938] | – | 15 |
| 772692 (kA*kA*kA*dG*d[5mC]*dA*d[5mC]*dT*dA*d[5mC]*dA*dA*dT*kG*k[5mC]*kT; antisense) [compound 772692] | – | 19 |
| 799009 (kT*k[5mC]*k[5mC]*d[5mC]*d[5mC]*dA*dT*d[5mC]*dT*dG*d[5mC]*d[5mC]*dG*k[5mC]*kT*k[5mC]; antisense) [compound 799009] | 62 | – |
| 798949 (antisense kA*kG*kA*dG*d[5mC]*dG*dA*dA*dA*d[5mC]*dA*dA*dA*kA*k[5mC]*kA) [compound 798949] | 55 | – |
| 798762 (kT*kA*kG*dG*dA*d[5mC]*dG*dA*dG*dG*dG*d[5mC]*dG*kG*k[5mC]*kT; antisense) [compound 798762] | 56 | – |
| 799444 (antisense k[5mC]*kA*kT*d[5mC]*dA*dT*dG*d[5mC]*dT*dG*dA*dT*dT*kT*kT*kA) [compound 799444] | 45 | – |

Same assay, conditions: Hep3B cells, electroporation, 10,000 nM antisense oligonucleotide, approximately 24 hours, RTS5062, relative to untreated control cells

| Substance | % inhibition of SMAD7 mRNA expression [%] |
| --- | --- |
| 799739 (antisense k[5mC]*kA*k[5mC]*d[5mC]*d[5mC]*d[5mC]*dT*dA*dT*d[5mC]*dA*dA*dA*kA*kA*kA) [compound 799739] | 0 |
| 799271 (antisense k[5mC]*kT*k[5mC]*dG*dA*dG*dT*d[5mC]*dA*dG*dG*d[5mC]*dT*k[5mC]*kA*kA) [compound 799271] | 60 |

Same assay, conditions: SMAD7 mRNA, Hep3B cells, 10,000 nM antisense oligonucleotide, electroporation, approximately 24 hours, primer probe set RTS5062, relative to untreated control cells

| Substance | % Inhibition [%] |
| --- | --- |
| 829790 (k[5mC]*k[5mC]*k[5mC]*dG*dT*dA*dA*dG*dA*dT*dT*d[5mC]*dA*k[5mC]*kA*kG; antisense) [compound 829790] | 51 |
| 790674 (kT*kG*k[5mC]*dT*dA*d[5mC]*d[5mC]*dT*dA*dA*dT*dG*dT*k[5mC]*kA*kA; antisense) [compound 790674] | 40 |
| 800768 (antisense kG*k[5mC]*kG*d[5mC]*dT*d[5mC]*d[5mC]*dG*dT*dG*dG*d[5mC]*dA*kT*kG*k[5mC]) [compound 800768] | 18 |
| 800793 (antisense kT*kG*kA*d[5mC]*dT*d[5mC]*dT*dT*dG*dT*dT*dG*dT*k[5mC]*k[5mC]*kG) [compound 800793] | 53 |
| 772589 (kA*k[5mC]*k[5mC]*dG*dA*dT*d[5mC]*d[5mC]*d[5mC]*d[5mC]*dA*dG*dG*k[5mC]*kT*k[5mC]; antisense) [compound 772589] | 9 |
| 790537 (kA*kG*k[5mC]*dA*dG*d[5mC]*dA*dA*dA*dG*dT*dA*dG*kT*kT*kT; antisense) [compound 790537] | 27 |

Same assay, conditions: SMAD7 mRNA, Hep3B cells, electroporation with 10,000 nM antisense oligonucleotide, approximately 24 hours, primer probe set RTS5062, relative to untreated control cells

| Substance | % Inhibition [%] |
| --- | --- |
| 829962 (k[5mC]*kT*kG*dA*dT*dT*dA*dT*dT*dA*dA*dT*dG*kG*kT*k[5mC]; antisense) [compound 829962] | 19 |
| 829984 (kA*kG*kG*d[5mC]*dG*dG*dT*dG*dA*dT*dT*dG*d[5mC]*k[5mC]*kT*kT; antisense) [compound 829984] | 0 |
| 829907 (antisense kA*k[5mC]*k[5mC]*dG*dG*d[5mC]*dT*dG*dT*dT*dG*dA*dA*kG*kA*kT) [compound 829907] | 23 |
| 829879 (antisense kT*kG*kG*dA*dG*dT*d[5mC]*d[5mC]*dG*dG*dG*dT*dT*kG*kT*k[5mC]) [compound 829879] | 29 |
| 829964 (k[5mC]*kA*k[5mC]*d[5mC]*dT*dA*dG*dT*dT*d[5mC]*dG*d[5mC]*dA*kG*kA*kG; antisense) [compound 829964] | 3 |
